Values quoted from earlier work in article PMC4408927 (Nature, 2015).

Columns and labels:
[1] = not given; remark: listed apart in the source

| Effect on bleeding | SMILES | Platelet aggregation (platelet aggregation) | Arterial thrombosis [1] | Bleeding time | ADP-induced platelet aggregation (platelet aggregation) |
| --- | --- | --- | --- | --- | --- |
| minimal effect | CC(C)(C)c1ccccc1Oc1ncccc1NC(=O)Nc1ccc(OC(F)(F)F)cc1 [BPTU, 1-(2-(2-(tert-butyl)phenoxy)pyridin-3-yl)-3-(4-(trifluoromethoxy)phenyl)urea] | substantially reduces |  |  |  |
|  | CNc1nc(I)nc2c1ncn2[C@H]1C[C@H](OP(=O)(O)O)[C@]2(COP(=O)(O)O)C[C@H]12 [MRS2500, (1′R,2′S,4′S,5′S)-4-(2-Iodo-6-methylaminopurin-9-yl)-1-[(phosphato)methyl]-2(phosphato)bicycle[3.1.0]-hexane] |  | effectively reduces | moderate prolongation | completely blocks |
